Legend:
D(2) dopamine receptor [1] = target: T1, D(2) dopamine receptor (Homo sapiens, UniProt P14416); assay: Agonist activity at human dopamine D2L receptor expressed in CHO cell membranes after 1 hr by [35S]-GTPgammaS binding assay relative to 100 uM quinelorane; format: functional
D(2) dopamine receptor [2] = target: T1, D(2) dopamine receptor; assay: Agonist activity at human dopamine D2L receptor expressed in CHO cell membranes after 1 hr by [35S]-GTPgammaS binding assay; format: functional
D(2) dopamine receptor [3] = target: T1, D(2) dopamine receptor; assay: Potency index, ratio of quinelorane EC50 to compound EC50 for human dopamine D2L receptor expressed in CHO cell membranes; format: cell-based
D(4) dopamine receptor = target: T2, D(4) dopamine receptor (Homo sapiens, UniProt P21917); assay: Binding affinity to human dopamine D4 receptor
T2 sequence (P21917 whole entry): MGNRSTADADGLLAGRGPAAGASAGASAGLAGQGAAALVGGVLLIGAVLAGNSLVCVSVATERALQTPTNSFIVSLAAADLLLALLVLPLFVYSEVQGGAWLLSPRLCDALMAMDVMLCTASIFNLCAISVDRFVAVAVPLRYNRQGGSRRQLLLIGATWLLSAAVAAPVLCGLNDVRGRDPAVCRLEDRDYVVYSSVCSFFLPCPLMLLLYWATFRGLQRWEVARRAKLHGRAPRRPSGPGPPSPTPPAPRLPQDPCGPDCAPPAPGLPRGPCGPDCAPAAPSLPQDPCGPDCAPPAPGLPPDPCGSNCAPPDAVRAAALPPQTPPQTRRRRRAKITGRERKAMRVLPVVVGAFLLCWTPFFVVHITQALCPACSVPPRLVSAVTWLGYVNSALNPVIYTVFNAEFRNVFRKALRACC

D(1A) dopamine receptor = D(1A) dopamine receptor (Homo sapiens, UniProt P21728); assay: Binding affinity to human dopamine D1 receptor
D(2) dopamine receptor [4] = target: T1, D(2) dopamine receptor; assay: Binding affinity to human dopamine D2 receptor
D(1B) dopamine receptor = D(1B) dopamine receptor (Homo sapiens, UniProt P21918); assay: Binding affinity to human dopamine D5 receptor
Chain of D(1B) dopamine receptor (P21918 whole entry): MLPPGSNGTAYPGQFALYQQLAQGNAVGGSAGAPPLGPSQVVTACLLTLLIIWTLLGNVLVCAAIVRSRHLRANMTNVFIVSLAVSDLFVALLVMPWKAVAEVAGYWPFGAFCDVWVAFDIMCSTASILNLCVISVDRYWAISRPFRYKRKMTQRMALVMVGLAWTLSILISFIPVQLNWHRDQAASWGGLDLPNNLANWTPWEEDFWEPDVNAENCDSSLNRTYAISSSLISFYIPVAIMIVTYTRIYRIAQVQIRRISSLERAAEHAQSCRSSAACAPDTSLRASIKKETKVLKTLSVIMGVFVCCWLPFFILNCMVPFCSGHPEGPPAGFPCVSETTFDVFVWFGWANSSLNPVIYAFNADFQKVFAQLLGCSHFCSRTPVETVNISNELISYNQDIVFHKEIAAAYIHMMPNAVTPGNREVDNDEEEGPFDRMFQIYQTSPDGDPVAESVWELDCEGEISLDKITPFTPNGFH

T1 sequence (P14416 whole entry): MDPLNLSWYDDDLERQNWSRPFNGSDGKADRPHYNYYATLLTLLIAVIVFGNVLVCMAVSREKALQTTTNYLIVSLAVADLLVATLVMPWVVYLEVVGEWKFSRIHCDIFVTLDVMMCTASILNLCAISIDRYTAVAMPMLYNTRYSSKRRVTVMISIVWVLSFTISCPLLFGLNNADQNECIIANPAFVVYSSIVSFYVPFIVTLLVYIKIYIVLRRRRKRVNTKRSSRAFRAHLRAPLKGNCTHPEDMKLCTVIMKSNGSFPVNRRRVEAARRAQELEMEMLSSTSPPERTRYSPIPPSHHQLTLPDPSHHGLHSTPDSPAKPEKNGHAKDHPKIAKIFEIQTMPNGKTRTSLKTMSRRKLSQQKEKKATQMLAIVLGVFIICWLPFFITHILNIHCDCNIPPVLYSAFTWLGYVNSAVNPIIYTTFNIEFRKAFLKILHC
Chain of D(1A) dopamine receptor (P21728 whole entry): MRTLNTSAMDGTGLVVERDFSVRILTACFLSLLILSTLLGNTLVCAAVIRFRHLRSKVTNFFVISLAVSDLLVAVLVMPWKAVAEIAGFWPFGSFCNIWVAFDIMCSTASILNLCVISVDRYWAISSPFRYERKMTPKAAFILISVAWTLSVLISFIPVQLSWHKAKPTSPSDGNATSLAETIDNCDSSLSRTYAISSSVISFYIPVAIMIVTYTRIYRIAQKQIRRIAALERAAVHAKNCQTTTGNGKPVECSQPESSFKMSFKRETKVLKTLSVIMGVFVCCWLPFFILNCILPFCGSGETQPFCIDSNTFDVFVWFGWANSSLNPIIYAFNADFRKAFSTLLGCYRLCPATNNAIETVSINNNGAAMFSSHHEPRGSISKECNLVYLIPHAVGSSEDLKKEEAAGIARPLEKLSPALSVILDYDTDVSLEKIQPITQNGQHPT

Compound	Emax (D(2) dopamine receptor [1]) [%]	EC50 (D(2) dopamine receptor [2]; read-out: EC50) [µM]	other results
CCCN(CCCC(=O)OCC)CCc1cccc2c1CC(=O)N2	90	0.055	
CCCN1CCC[C@@H]2Cc3nc(N)ncc3C[C@H]21 [QUINELORANE]		0.045	
CCCN(CCCNC(=O)CCC(=O)O)CCc1cccc2c1CC(=O)N2	72	4.68	
CCCN(CCCNC(=O)CCCCCCCCCCC(=O)NCCCN(CCC)CCc1cccc2c1CC(=O)N2)CCc1cccc2c1CC(=O)N2	85	0.0039	Ratio EC50 (D(2) dopamine receptor [3]): 3
CCCN(CCCNC(=O)CCC(=O)NCCCN(CCC)CCc1cccc2c1CC(=O)N2)CCc1cccc2c1CC(=O)N2	94	0.028	
CCCN(CCCNC(=O)CCCCCCC(=O)NCCCN(CCC)CCc1cccc2c1CC(=O)N2)CCc1cccc2c1CC(=O)N2	99	0.022	
CCCN(CCCNC(=O)CCCCCCCCCCCCCCC(=O)NCCCN(CCC)CCc1cccc2c1CC(=O)N2)CCc1cccc2c1CC(=O)N2	85	0.0062	Ratio EC50 (D(2) dopamine receptor [3]): 3
CCCN(CCC)CCc1cccc2c1CC(=O)N2 [ROPINIROLE]			Ki (D(4) dopamine receptor): 0.0078 µM; Ki (D(1A) dopamine receptor): 32.5 µM; Ki (D(2) dopamine receptor [4]): 0.0037 µM; Ki (D(1B) dopamine receptor): 41.2 µM

The remaining molecules from weak to strong by EC50 (D(2) dopamine receptor [2]; read-out: EC50), led by results:

Emax (D(2) dopamine receptor [1]) [%]	EC50 (D(2) dopamine receptor [2]; read-out: EC50) [µM]	Compound	other results
45	1.41	CCCN(CCCNC(=O)OC(C)(C)C)CCc1cccc2c1CC(=O)N2CCCNC(=O)OC(C)(C)C	EC50 (D(2) dopamine receptor [2]; read-out: pEC50 (converted)): 1.45 µM
69	0.219	CCCN(CCCNC(=O)OC(C)(C)C)CCc1cccc2c1CC(=O)N2	
92	0.085	CCCNCCc1cccc2c1CC(=O)N2	
78	0.042	CCCCCCCCCC(=O)NCCCN(CCC)CCc1cccc2c1CC(=O)N2	
58	0.014	CCCN(CCCNC(=O)CCCCCCCCCCCCCCCCCCC(=O)NCCCN(CCC)CCc1cccc2c1CC(=O)N2)CCc1cccc2c1CC(=O)N2	Ratio EC50 (D(2) dopamine receptor [3]): 3

— ChEMBL document CHEMBL3585327 (Medchemcomm, 2014)
